Experimental data taken from article PMC10424242, “Macrocyclic Peptidomimetic Plasmepsin X Inhibitors with Potent In Vitro and In Vivo Antimalarial Activity” (Journal of Medicinal Chemistry, 2023).
“Also recorded” adds a separate entry of the source. Like-named read-outs stand apart in the source and are kept apart here.

How the values were obtained:
[1] = Liver microsomal metabolic stability; assay type: in vitro ADME, mouse; settings: pooled liver microsomes, pH 7.4, mouse liver microsomes, 5 μM; for microsomal CLint at 1 h, 5 μM: read-out: microsomal stability CL(int)
Procedure: Microsomal stability assays are performed as described elsewhere.[41] Test compounds and pooled mouse liver microsomes are incubated in potassium phosphate buffer in the presence of the cofactor NADPH at 37 °C. Reaction mixtures (700 μL) contain a final concentration of 5 μM test compound, 0.05% DMSO, 0.5 mg/mL microsomes, and ∼0.7–0.9 mM NADPH in 100 mM potassium phosphate buffer at pH 7.4. Reactions are terminated by the addition of 100 μL of the reaction mixture to 900 μL of acetonitrile after 0, 5, 15, 30, 45, and 60 min of incubation. Samples were centrifuged, and the resultant supernatant was analyzed by ultra-performance liquid chromatography–tandem mass spectrometry (UPLC-MS/MS). The amount of remaining compound is calculated and compared to the initial amount of test compound (zero time point). Verapamil is used as a positive control, and samples prepared without cofactor NADPH are used as a negative control (0 and 60 min). The in vitro metabolic stability parameters (half-life value (t1/2) and intrinsic clearance value (Clint)) are calculated from the slope of the Ln of concentration remaining vs the time curve.

[2] = Plasma protein binding (rapid equilibrium dialysis); assay type: in vitro ADME; settings: pH 7.4, mouse plasma, 2 h at 37 °C
Procedure: Plasma protein binding was performed with rapid equilibrium dialysis (RED) device inserts containing a dialysis membrane with a molecular weight cut-off of 8000 Daltons. Inserts were placed in the single-use RED plate without prior preparation.
The test compound at a concentration of 5 μM was added to mouse plasma and dialyzed against phosphate-buffered saline (PBS, pH 7.4) for 2 h at 37 °C. Propranolol hydrochloride was used as a positive control (high PPB), and fluconazole was used as negative control (low PPB). After dialysis, the drug concentration in the buffer and plasma compartments was quantified by liquid chromatography and tandem mass spectrometry (LC-MS/MS) analysis.

[3] = target: recombinant P. falciparum PMX (Plasmodium falciparum, UniProt Q8IAS0); test: Recombinant P. falciparum PMX inhibition assay (fluorogenic substrate Rh2N); assay type: biochemical
recombinant P. falciparum PMX, sequence (Q8IAS0 222-573): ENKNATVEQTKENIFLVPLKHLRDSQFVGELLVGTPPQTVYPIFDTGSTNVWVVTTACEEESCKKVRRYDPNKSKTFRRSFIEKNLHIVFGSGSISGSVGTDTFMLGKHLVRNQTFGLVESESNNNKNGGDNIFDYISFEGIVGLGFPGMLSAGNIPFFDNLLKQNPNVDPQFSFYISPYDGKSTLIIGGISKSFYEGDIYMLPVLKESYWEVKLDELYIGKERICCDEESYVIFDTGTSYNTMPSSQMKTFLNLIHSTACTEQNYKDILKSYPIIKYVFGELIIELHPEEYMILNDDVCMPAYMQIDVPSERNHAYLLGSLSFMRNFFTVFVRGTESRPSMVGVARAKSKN
Procedure: The fluorescence of this peptide is quenched by the spatial proximity of the DABCYL/EDANS groups in the uncleaved peptide and is increased upon cleavage at the internal F–I bond. […] Control wells contained no inhibitor, and the plate was blanked against the substrate only in DB. […] All experiments were performed in duplicate.

PMIV = PMIV (Plasmodium falciparum, UniProt Q8IM16); test: FRET-based PMIV inhibition assay; assay type: biochemical, P. falciparum
PMIV, sequence (Q8IM16 122-449): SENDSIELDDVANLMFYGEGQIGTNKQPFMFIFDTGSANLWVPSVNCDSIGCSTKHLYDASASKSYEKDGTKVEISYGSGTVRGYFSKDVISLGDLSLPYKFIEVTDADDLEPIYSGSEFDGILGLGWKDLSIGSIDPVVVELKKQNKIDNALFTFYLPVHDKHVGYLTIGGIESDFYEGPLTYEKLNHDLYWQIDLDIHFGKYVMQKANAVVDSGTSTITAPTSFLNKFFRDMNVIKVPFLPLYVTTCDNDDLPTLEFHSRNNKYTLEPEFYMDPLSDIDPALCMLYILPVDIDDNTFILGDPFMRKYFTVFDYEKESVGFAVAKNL
Procedure: (§1) A fluorescence resonance energy transfer (FRET)-based assay was performed to assess the ability of the compounds to inhibit PMIV, CatD, and BACE1. Serial dilutions of test compounds were dispensed in a white 96-well plate. […] The mixture was incubated for 20 min at 37 °C. […] IC50 values were calculated with GraphPad Prism 8.0 using the nonlinear regression, variable slope (four parameters). Compounds were tested in triplicate.

cathepsin D (CatD) = cathepsin D (CatD) (Homo sapiens, UniProt P07339); test: FRET-based CatD inhibition assay (selectivity counter screen); assay type: biochemical
cathepsin D (CatD), sequence (P07339 65-412): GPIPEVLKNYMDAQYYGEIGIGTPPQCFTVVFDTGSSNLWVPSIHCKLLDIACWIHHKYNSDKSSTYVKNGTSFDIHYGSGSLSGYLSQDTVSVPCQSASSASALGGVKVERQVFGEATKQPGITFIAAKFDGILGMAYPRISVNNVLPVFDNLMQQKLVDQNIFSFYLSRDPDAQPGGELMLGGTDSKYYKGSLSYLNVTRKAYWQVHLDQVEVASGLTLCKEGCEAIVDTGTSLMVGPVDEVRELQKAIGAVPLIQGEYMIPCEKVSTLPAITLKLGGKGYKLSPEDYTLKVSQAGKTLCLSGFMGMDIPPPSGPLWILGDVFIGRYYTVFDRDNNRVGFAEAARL
Procedure: as §1

BACE1 = BACE1 (Homo sapiens, UniProt P56817); test: FRET-based BACE1 inhibition assay (selectivity counter screen); assay type: biochemical
BACE1, sequence (P56817 46-501): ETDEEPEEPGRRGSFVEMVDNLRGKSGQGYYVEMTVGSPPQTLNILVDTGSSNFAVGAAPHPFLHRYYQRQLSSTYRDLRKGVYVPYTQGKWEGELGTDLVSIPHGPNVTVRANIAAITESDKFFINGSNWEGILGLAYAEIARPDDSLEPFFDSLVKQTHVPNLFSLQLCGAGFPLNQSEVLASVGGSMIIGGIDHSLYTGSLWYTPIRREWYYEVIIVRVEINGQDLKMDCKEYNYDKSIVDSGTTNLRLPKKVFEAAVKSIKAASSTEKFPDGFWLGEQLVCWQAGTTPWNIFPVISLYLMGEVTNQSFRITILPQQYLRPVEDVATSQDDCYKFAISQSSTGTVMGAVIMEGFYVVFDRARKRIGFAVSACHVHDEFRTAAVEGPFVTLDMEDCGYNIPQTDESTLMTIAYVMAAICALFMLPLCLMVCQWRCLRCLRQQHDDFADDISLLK
Procedure: as §1

[4] = test system: P. falciparum Pf3D7^0087/N9; test: In vivo efficacy against P. falciparum in the TAD PfalcHuMouse model; settings: three times a day for 4 days at 40 mg/kg, oral; 40 mg/kg
Procedure: Therapeutic efficacy studies were performed at TAD using a standardized humanized mouse model of P. falciparum malaria[31] with modifications.[34] […] The volume of injections was 1 and 0.7 mL for i.p. or i.v. inoculation, respectively.
The inoculum was obtained from peripheral blood of CO2-euthanized donor mice harboring 5–10% parasitemia.
Before drug administration, each infected mouse was randomly assigned to its corresponding treatment. […] The treatment was administered by oral gavage with 20G straight reusable feeding needles (Fine Science Tools GmbH) at 10 mL·kgbodyweight^–1 unless otherwise stated.
Parasitemia was measured in serial 2 μL of samples of tail blood by flow cytometry and expressed as the % of parasitized erythrocytes with respect to the total erythrocytes in circulation.
The clearance of parasitized erythrocytes from the peripheral blood of mice was assessed by measuring the parasite reduction ratio (PRR) calculated as the ratio between parasitemia at Day n + 2 divided by parasitemia at Day n for each individual of the study.
The parasiticidal effect of drugs in vivo was assessed by measuring the day of recrudescence (DoR) as described.[34] In short, DoR was defined as the day at which parasitemia after drug treatment reached the % parasitemia at treatment inception. Drug-treated mice were deemed cured if there was no detectable parasitemia 60 days after treatment.

[5] = recombinant PMX, read-out: PMX, nM (IC50)
[6] = Table 3, read-out: PMIV, nM (as listed in Table 3)
[7] = Table 3, read-out: PMX, nM (as listed in Table 3)

| SMILES | half-life at 1 h, 5 μM [1] | microsomal CLint at 1 h, 5 μM [1] | fraction unbound at 2 h, 5 µM [2] | IC50 [3, 5] | IC50 (PMIV) | IC50 (PMIV; read-out: PMIV, nM (IC50)) | IC50 (cathepsin D (CatD)) | IC50 (BACE1) | IC50 [3] | half-life at 5 μM [1] | reduction of PMX inhibitory potency ([3]; compared to analogue 7a) | effect on parasite burden [4] | IC50 (PMIV; [6]) | IC50 [3, 7] |
| --- | --- | --- | --- | --- | --- | --- | --- | --- | --- | --- | --- | --- | --- | --- |
| CCCN(CCC)C(=O)c1cccc(C(=O)N[C@@H](Cc2ccccc2)[C@H](O)CNC(C)(C)c2cccc(OC)c2)c1 [6a] | 6.4 min | 216 µL/min/mg | 0.009 | 6.2 ± 0.3 nM | – | – | – | – | – | – | – | – | – | – |
| COc1cccc(C(C)(C)NC[C@@H](O)[C@@H]2Cc3cccc(c3)OCCCCNC(=O)c3cccc(c3)C(=O)N2)c1 [7b, (S)-4-((R)-1-Hydroxy-2-((2-(3-methoxyphenyl)propan-2-yl)amino)ethyl)-7-oxa-3,12-diaza-1,6(1,3)-dibenzenacyclotridecaphane-2,13-dione] | 31.3 min | 44.3 µL/min/mg | 0.0274 | 11.2 ± 0.7 nM | 60 ± 3 nM | 510 ± 30 nM | 650 ± 30 nM | 910 ± 40 nM | 4.1 ± 0.3 nM | – | – | – | – | – |
| COc1cccc(C(C)(C)NC[C@@H](O)[C@@H]2Cc3cccc(c3)OCCCCN(C)C(=O)c3cccc(c3)C(=O)N2)c1 [7c, (S)-4-((R)-1-Hydroxy-2-((2-(3-methoxyphenyl)propan-2-yl)amino)ethyl)-12-methyl-7-oxa-3,12-diaza-1,6(1,3)-dibenzenacyclotridecaphane-2,13-dione] | 16.9 min | 81.9 µL/min/mg | 0.0351 | 5.3 ± 3 nM | 510 ± 30 nM | 170 ± 20 nM | 320 ± 20 nM | 1030 ± 50 nM | 11.2 ± 0.7 nM | – | – | – | – | – |
| COc1cccc(C(C)(C)NC[C@@H](O)[C@@H]2Cc3cccc(c3)OCCCCN(CCC(F)(F)F)C(=O)c3cccc(c3)C(=O)N2)c1 [7d, (S)-4-((R)-1-Hydroxy-2-((2-(3-methoxyphenyl)propan-2-yl)amino)ethyl)-12-(3,3,3-trifluoropropyl)-7-oxa-3,12-diaza-1,6(1,3)-dibenzenacyclotridecaphane-2,13-dione] | 20.4 min | 67.9 µL/min/mg | 0.0125 | 8.6 ± 2.4 nM | 170 ± 20 nM | 61 ± 4 nM | 230 ± 20 nM | 2100 ± 100 nM | 5.3 ± 3 nM | – | – | – | – | – |
| COc1cccc(C(C)(C)NC[C@@H](O)[C@@H]2Cc3cccc(c3)OCCCCN(CC(C)(C)C)C(=O)c3cccc(c3)C(=O)N2)c1 [7e] | 13.7 min | 101 µL/min/mg | 0.0035 | 2.5 ± 0.2 nM | 61 ± 4 nM | 40 nM | 630 nM | 1900 ± 100 nM | 8.6 ± 2.4 nM | – | – | – | – | – |
| COc1cccc(C(C)(C)NC[C@@H](O)[C@@H]2Cc3cccc(c3)OCCCCN(CCN(C)C)C(=O)c3cccc(c3)C(=O)N2)c1 [7f, (S)-12-(2-(Dimethylamino)ethyl)-4-((R)-1-hydroxy-2-((2-(3-methoxyphenyl)propan-2-yl)amino)ethyl)-7-oxa-3,12-diaza-1,6(1,3)-dibenzenacyclotridecaphane-2,13-dione] | – | – | 0.0695 | 16.7 ± 1.5 nM | 40 nM | 1730 ± 90 nM | 6800 ± 340 nM | 52400 ± 1600 nM | 2.5 ± 0.2 nM | > 120 min | 4 fold | only a weak effect on parasite burden; also recorded: measurable reduction in parasitemia | – | – |
| CCCN1CCCCCOc2cccc(c2)C[C@@H]([C@H](O)CNC(C)(C)c2cccc(OC)c2)NC(=O)c2cccc(c2)C1=O [7g, (S)-4-((R)-1-Hydroxy-2-((2-(3-methoxyphenyl)propan-2-yl)amino)ethyl)-13-propyl-7-oxa-3,13-diaza-1,6(1,3)-dibenzenacyclotetradecaphane-2,14-dione] | 7.64 min | 181 µL/min/mg | 0.0079 | 6.9 ± 0.49 nM | – | 190 nM | 1200 nM | 6000 ± 300 nM | – | – | – | – | 190 nM | 6.9 ± 0.49 nM |
| CCCN1CCOc2cccc(c2)C[C@@H]([C@H](O)CNC(C)(C)c2cccc(OC)c2)NC(=O)c2cccc(c2)C1=O [7h] | 13.9 min | 99.8 µL/min/mg | 0.0384 | 6.8 ± 0.59 nM | – | 200 nM | 600 nM | 1850 ± 90 nM | – | – | – | – | 200 nM | 6.8 ± 0.59 nM |
| CCCN1CCOCCc2cccc(c2)C[C@@H]([C@H](O)CNC(C)(C)c2cccc(OC)c2)NC(=O)c2cccc(c2)C1=O [7i, (S)-4-((R)-1-Hydroxy-2-((2-(3-methoxyphenyl)propan-2-yl)amino)ethyl)-12-propyl-9-oxa-3,12-diaza-1,6(1,3)-dibenzenacyclotridecaphane-2,13-dione] | 8.39 min | 165 µL/min/mg | 0.0287 | 4.6 ± 0.07 nM | – | 81 ± 4 nM | 1650 ± 80 nM | 22700 ± 1100 nM | – | – | – | – | 81 ± 4 nM | 4.6 ± 0.07 nM |
